Results on 3 compounds are retold here after ChEMBL document CHEMBL1240398, “Surveillance and correlation of antibiotic prescription and resistance of Gram-negative bacteria in Singaporean hospitals” (2010).

SMILES strings stand for the structures.

Common to all, as to format: functional
The subject of assay [1] is Escherichia coli. As to the kind of experiment: Antimicrobial activity against Escherichia coli clinical isolate assessed as resistance isolates by disk diffusion method. Background: Agar diffusion results depend on both activity and mobility in agar.
The test system of assay [2] is Escherichia coli. Description: Antimicrobial activity against Escherichia coli isolate obtained from patient's blood assessed as resistance isolates by disk diffusion method.
Assay [3] relates to Klebsiella pneumoniae. Description: Antimicrobial activity against Klebsiella pneumoniae clinical isolate assessed as resistance isolates by disk diffusion method.
For assay [4], the system named is Klebsiella pneumoniae. As to the kind of experiment: Antimicrobial activity against Klebsiella pneumoniae isolate obtained from patient's blood assessed as resistance isolates by disk diffusion method.
Assay [5] concerns Acinetobacter sp. As to the kind of experiment: Antimicrobial activity against Acinetobacter sp. clinical isolate assessed as resistance isolates by disk diffusion method.
Assay [6] deals with Acinetobacter sp. Description: Antimicrobial activity against Acinetobacter sp. isolate obtained from patient's blood assessed as resistance isolates by disk diffusion method.
The subject of assay [7] is Pseudomonas aeruginosa. Description: Antimicrobial activity against Pseudomonas aeruginosa clinical isolate assessed as resistance isolates by disk diffusion method.
The subject of assay [8] is Pseudomonas aeruginosa. Description: Antimicrobial activity against Pseudomonas aeruginosa isolate obtained from patient's blood assessed as resistance isolates by disk diffusion method.

For the compound `CO/N=C(\C(=O)N[C@@H]1C(=O)N2C(C(=O)O)=C(CSc3nc(=O)c(O)nn3C)CS[C@H]12)c1csc(N)n1` [CEFTRIAXONE], the Activity is given as 20% in the assay with Escherichia coli [1], 21.7% in the assay on Escherichia coli [2], 32.3% in the assay on Klebsiella pneumoniae [3] and 27.4% with Klebsiella pneumoniae [4].

With `C[C@@H](O)[C@H]1C(=O)N2C(C(=O)O)=C(SCCNC=N)C[C@H]12` [IMIPENEM ANHYDROUS], the Activity in the assay on Acinetobacter sp. [5] is reported as 46.2%; with Acinetobacter sp. [6], 50%; with Pseudomonas aeruginosa [7] it was 7.5%; in the assay with Pseudomonas aeruginosa [8] it was 12.8%.

On to `O=C(O)c1cn(C2CC2)c2cc(N3CCNCC3)c(F)cc2c1=O` [CIPROFLOXACIN], for which the results for the Activity in the assay with Escherichia coli [2] and in the assay on Klebsiella pneumoniae [4] were 31% and 24%, respectively.
